Assays:
Assay type in all cases: in vivo
[1] = test system: pigweed, redroot (redroot pigweed, Amaranthus retroflexus); assay: Test A postemergence, redroot pigweed; conditions: 0 to 100 scale, 10 days
Source text: (§1) Seeds of plant species selected from barnyardgrass (Echinochloa crus-galli), blackgrass (Alopecurus myosuroides), corn (Zea mays), foxtail, giant (giant foxtail, Setaria faberi), goosegrass (Eleusine indica), kochia (Bassia scoparia), oat, wild (wild oat, Avena fatua), pigweed, palmer (palmer amaranth, Amaranthus palmeri), pigweed, redroot (redroot pigweed, Amaranthus retroflexus), ragweed (common ragweed, Ambrosia artemisiifolia), ryegrass, Italian (Italian ryegrass, Lolium multiflorum), soybean (Glycine max), and wheat (Triticum aestivum) were planted into a blend of loam soil and sand and treated preemergence with a directed soil spray using test chemicals formulated in a non-phytotoxic solvent mixture which included a surfactant.
(§2) At the same time, plants selected from these crop and weed species and also galium (catchweed bedstraw, Galium aparine) and horseweed (Erigeron canadensis) were planted in pots containing the same blend of loam soil and sand and treated with postemergence applications of test chemicals formulated in the same manner. Plants ranged in height from 2 to 10 cm and were in the one- to two-leaf stage for the postemergence treatment. Treated plants and untreated controls were maintained in a greenhouse for 10 days, after which time all treated plants were compared to untreated controls and visually evaluated for injury. Plant response ratings, summarized in Table A, are based on a 0 to 100 scale where 0 is no effect and 100 is complete control. A dash (-) response means no test result.

[2] = test system: pigweed, redroot (redroot pigweed, Amaranthus retroflexus); assay: Test A preemergence, redroot pigweed; conditions: 0 to 100 scale, 10 days
Source text: as §1, §2

[3] = test system: barnyardgrass (Echinochloa crus-galli); assay: Test A preemergence, barnyardgrass; conditions: 10 days
Source text: as §1, §2

[4] = test system: barnyardgrass (Echinochloa crus-galli); assay: Test A postemergence, barnyardgrass; conditions: 0 to 100 scale, 10 days
Source text: as §1, §2

[5] = 125 g ai/ha, 0 to 100 scale (0 no effect, 100 complete control)

Row | SMILES | Plant response rating, Pigweed, Redroot ([1]; 31 g ai/ha) | Plant response rating, Pigweed, Redroot ([1]; 125 g ai/ha) | Plant response rating, Pigweed, Redroot ([2]; 31 g ai/ha) | Plant response rating, Pigweed, Redroot ([2]; 125 g ai/ha) | Plant response rating, Barnyardgrass ([3]; 31 g ai/ha, 0 to 100 scale) | Plant response rating, Barnyardgrass [3, 5] | Plant response rating, Barnyardgrass ([4]; 31 g ai/ha) | Plant response rating, Barnyardgrass ([4]; 125 g ai/ha)
1 | C=CCOC1CCN(c2cc(NS(=O)(=O)C(F)(F)F)c(C)cc2C)C1=O (stereo not shown) [Compound 2, N-[2,4-dimethyl-5-[2-oxo-3-(2-propen-1-yloxy)-1-pyrrolidinyl]phenyl]-1,1,1-trifluoromethanesulfonamide] | 90 | 90 | 90 | 100 | 0 | 100 | 30 | 90
2 | C#CCOC1CCN(c2cc(NS(=O)(=O)C(F)(F)F)c(C)cc2C)C1=O (stereo not shown) [Compound 1, N-[2,4-dimethyl-5-[2-oxo-3-(2-propyn-1-yloxy)-1-pyrrolidinyl]phenyl]-1,1,1-trifluoromethanesulfonamide] | 80 | 90 | 90 | 100 | 80 | 100 | 80 | 90

Reference: US20240158348A1, “HERBICIDAL CYCLIC AMIDES N-SUBSTITUTED WITH A HALOALKYLSULFONYLANILIDE GROUP” (FMC Corporation, priority 2021, published 2024)
